This passage reports EC50 results from patent US10562905B2, “Carboxy tetrahydropyrazolopyrazine compounds for the treatment of infectious diseases” (Hoffmann-La Roche Inc., priority 2016, dated 2020).

The test system of one assay is HBV. As to the kind of experiment: HBV inhibition assay in HepG2.2.15 cells (qPCR of extracellular HBV DNA). The conditions noted are these: Hepatitis B virus, HepG2.2.15, 120 h, extracellular HBV DNA by qPCR, five days after compound treatment. The assay is classed as cell-based, Hepatitis B virus. The text has this: HepG2.2.15 is a stably-transfected cell line containing the HBV genome. It is derived from the hepatoblastoma cell line Hep G2 (American Type Culture Collection, ATCC® HB-8065™) by the published procedures described in reference: MA Selles et al. Proc. Natl. Acad. Sci. USA 1987, 84, 1005-1009. The cell line was maintained in Dulbecco's modified Eagle's medium and nutrient mixture F-12 (DMEM/F-12, Gibco, Cat.#: 11320-033) supplemented with 10% fetal bovine serum (Gibco, Cat.#:10099-141), 100 U/mL penicillin, 100 μg/mL streptomycin (Gibco, Cat.#:15140-122), and 0.3 mg/mL of G418 Sulfate (Gibco, Cat.#: 10131-027).
HepG2.2.15 cells were seeded into 96-well plates at a density of 3×10^4 cells per well in culture media of 100 μL DMEM/F-12 supplemented with 2.5% fetal bovine serum, 100 U/mL penicillin, 100 μg/mL streptomycin and cultured overnight at 37° C. The test compounds were serially half-log diluted in DMSO, then diluted 100 times in culture media. 100 μL culture media containing diluted compounds were added into the plates to reach 0.5% final concentration of DMSO in every well. Five days after compound treatment, culture supernatant was collected for further analysis.
For quantitative PCR detection of extracellular HBV DNA, culture supernatant was processed by 500 μg/mL Proteinase K (Sigma, Cat.#:P2308) digestion at 50° C. for 1 hour. After heat inactivation of the enzyme at 95° C. for 15 minutes, the samples were subjected to HBV DNA quantification by qPCR. The effective compound concentration at which HBV replication was inhibited by 50% (EC50) was determined.
On the technique in general: Real-time PCR tracks product formation cycle by cycle.
The EC50 is the concentration at which the effect is half-maximal. High values mean a less potent agent, low ones a more potent agent. `C[C@H]1Cn2ncc(N3CC(N4CCC[C@H]4C(=O)O)CC3=O)c2CN1C(=O)Nc1cc(F)c(F)c(F)c1` (stereo partly drawn) [Example 1, (2S)-1-[1-[(6S)-6-methyl-5-[(3,4,5-trifluorophenyl)carbamoyl]-6,7-dihydro-4H-pyrazolo[1,5-a]pyrazin-3-yl]-5-oxo-pyrrolidin-3-yl]pyrrolidine-2-carboxylic acid] gave an EC50 of 126 nM. For the compound `C[C@H]1Cn2ncc(N3C(=O)CC(N4CCC[C@H]4C(=O)O)[C@@H]3C)c2CN1C(=O)Nc1cc(F)c(F)c(F)c1` (stereo partly drawn) [Example 2, (2S)-1-[(2S)-2-methyl-1-[(6S)-6-methyl-5-[(3,4,5-trifluorophenyl)carbamoyl]-6,7-dihydro-4H-pyrazolo[1,5-a]pyrazin-3-yl]-5-oxo-pyrrolidin-3-yl]pyrrolidine-2-carboxylic acid], the EC50 was found to be 98 nM. Take `C[C@H]1Cn2ncc(N3CC(N(C)CC(=O)O)CC3=O)c2CN1C(=O)Nc1cc(F)c(F)c(F)c1` (stereo partly drawn) [Example 3, 2-[Methyl-[1-[(6S)-6-methyl-5-[(3,4,5-trifluorophenyl)carbamoyl]-6,7-dihydro-4H-pyrazolo[1,5-a]pyrazin-3-yl]-5-oxo-pyrrolidin-3-yl]amino]acetic acid]: the midpoint of the response, the EC50, lay at 139 nM.

`C[C@H]1Cn2ncc(N3C(=O)CC(N4CCC[C@@H]4C(=O)O)[C@@H]3C)c2CN1C(=O)Nc1cc(F)c(F)c(F)c1` (stereo partly drawn) [Example 4, (2R)-1-[(2S)-2-methyl-1-[(6S)-6-methyl-5-[(3,4,5-trifluorophenyl)carbamoyl]-6,7-dihydro-4H-pyrazolo[1,5-a]pyrazin-3-yl]-5-oxo-pyrrolidin-3-yl]pyrrolidine-2-carboxylic acid] showed an EC50 of 105 nM. The compound `C[C@H]1Cn2ncc(N3CC(N4CCC(C(=O)O)C4)CC3=O)c2CN1C(=O)Nc1cc(F)c(F)c(F)c1` (stereo partly drawn) [Example 5, 1-[1-[(6S)-6-methyl-5-[(3,4,5-trifluorophenyl)carbamoyl]-6,7-dihydro-4H-pyrazolo[1,5-a]pyrazin-3-yl]-5-oxo-pyrrolidin-3-yl]pyrrolidine-3-carboxylic acid] displayed an EC50 of 240 nM. The compound `C[C@H]1[C@H](C)n2ncc(N3CC(N4CCC[C@H]4C(=O)O)CC3=O)c2CN1C(=O)Nc1cc(F)c(F)c(F)c1` (stereo partly drawn) [Example 6-1, (2S)-1-[1-[(6S,7S)-6,7-dimethyl-5-[(3,4,5-trifluorophenyl)carbamoyl]-6,7-dihydro-4H-pyrazolo[1,5-a]pyrazin-3-yl]-5-oxo-pyrrolidin-3-yl]pyrrolidine-2-carboxylic acid] showed an EC50 of 112 nM. `C[C@H]1Cn2ncc(N3CC(c4ccccc4C(=O)O)CC3=O)c2CN1C(=O)Nc1cc(F)c(F)c(F)c1` (stereo partly drawn) [Example 7, 2-[1-[(6S)-6-methyl-5-[(3,4,5-trifluorophenyl)carbamoyl]-6,7-dihydro-4H-pyrazolo[1,5-a]pyrazin-3-yl]-5-oxo-pyrrolidin-3-yl]benzoic acid] came in with an EC50 of 22 nM. The compound `C[C@H]1Cn2ncc(N3CC(c4cccc(C(=O)O)c4)CC3=O)c2CN1C(=O)Nc1cc(F)c(F)c(F)c1` (stereo partly drawn) [Example 8, 3-[1-[(6S)-6-methyl-5-[(3,4,5-trifluorophenyl)carbamoyl]-6,7-dihydro-4H-pyrazolo[1,5-a]pyrazin-3-yl]-5-oxo-pyrrolidin-3-yl]benzoic acid] showed an EC50 of 89 nM. Compound `C[C@H]1Cn2ncc(N3CC(N4CCC[C@@H]4C(=O)O)CC3=O)c2CN1C(=O)Nc1cc(F)c(F)c(F)c1` (stereo partly drawn) [Example 9, (2R)-1-[1-[(6S)-6-methyl-5-[(3,4,5-trifluorophenyl)carbamoyl]-6,7-dihydro-4H-pyrazolo[1,5-a]pyrazin-3-yl]-5-oxo-pyrrolidin-3-yl]pyrrolidine-2-carboxylic acid] came in with an EC50 of 124 nM. On the same count and under the same terms, the same measure for `C[C@H]1Cn2ncc(N3CC(Nc4ccccc4C(=O)O)CC3=O)c2CN1C(=O)Nc1cc(F)c(F)c(F)c1` (stereo partly drawn) [Example 12, 2-[[1-[(6S)-6-methyl-5-[(3,4,5-trifluorophenyl)carbamoyl]-6,7-dihydro-4H-pyrazolo[1,5-a]pyrazin-3-yl]-5-oxo-pyrrolidin-3-yl]amino]benzoic acid]: 288 nM; for `C[C@H]1Cn2ncc(N3CC4COCC(C3=O)N4CC(=O)O)c2CN1C(=O)Nc1cc(F)c(F)c(F)c1` (stereo partly drawn) [Example 13, 2-[7-[(6S)-6-methyl-5-[(3,4,5-trifluorophenyl)carbamoyl]-6,7-dihydro-4H-pyrazolo[1,5-a]pyrazin-3-yl]-6-oxo-3-oxa-7,9-diazabicyclo[3.3.1]nonan-9-yl]acetic acid]: 99 nM; for `C[C@H]1Cn2ncc(N3CC(c4cc(F)ccc4C(=O)O)CC3=O)c2CN1C(=O)Nc1cc(F)c(F)c(F)c1` (stereo partly drawn) [Example 14, 4-Fluoro-2-[1-[(6S)-6-methyl-5-[(3,4,5-trifluorophenyl)carbamoyl]-6,7-dihydro-4H-pyrazolo[1,5-a]pyrazin-3-yl]-5-oxo-pyrrolidin-3-yl]benzoic acid]: 30 nM.

As for `C[C@H]1Cn2ncc(N3CC(c4ccc(F)cc4C(=O)O)CC3=O)c2CN1C(=O)Nc1cc(F)c(F)c(F)c1` (stereo partly drawn) [Example 15, 5-Fluoro-2-[1-[(6S)-6-methyl-5-[(3,4,5-trifluorophenyl)carbamoyl]-6,7-dihydro-4H-pyrazolo[1,5-a]pyrazin-3-yl]-5-oxo-pyrrolidin-3-yl]benzoic acid], it took 57 nM to reach a half-maximal effect (EC50). Compound `C[C@H]1Cn2ncc(N3CC(c4ccc(C(=O)O)cc4)CC3=O)c2CN1C(=O)Nc1cc(F)c(F)c(F)c1` (stereo partly drawn) [Example 16, 4-[1-[(6S)-6-methyl-5-[(3,4,5-trifluorophenyl)carbamoyl]-6,7-dihydro-4H-pyrazolo[1,5-a]pyrazin-3-yl]-5-oxo-pyrrolidin-3-yl]benzoic acid] came in with an EC50 of 228 nM.

`C[C@H]1Cn2ncc(N3CC(c4ncccc4C(=O)O)CC3=O)c2CN1C(=O)Nc1cc(F)c(F)c(F)c1` (stereo partly drawn) [Example 18, 2-[1-[(6S)-6-methyl-5-[(3,4,5-trifluorophenyl)carbamoyl]-6,7-dihydro-4H-pyrazolo[1,5-a]pyrazin-3-yl]-5-oxo-pyrrolidin-3-yl]pyridine-3-carboxylic acid] displayed an EC50 of 102 nM.

Still in this assay, the particulars now being: extracellular HBV DNA by qPCR, five days after compound treatment.
`C[C@H]1Cn2ncc(N3CC(c4ccccc4C(=O)O)CC3=O)c2CN1C(=O)Nc1cc(F)c(F)c(F)c1` (single isomer, unassigned) [Example 7-1] had a half-maximal effective concentration (EC50) of 34 nM. As for `C[C@H]1Cn2ncc(N3CC(c4ccccc4C(=O)O)CC3=O)c2CN1C(=O)Nc1cc(F)c(F)c(F)c1` (single isomer, unassigned) [Example 7-2], a half-maximal response (EC50) required 14 nM. On the same count and under the same terms, the result for `C[C@H]1Cn2ncc(N3CC(c4c(F)cccc4C(=O)O)CC3=O)c2CN1C(=O)Nc1cc(F)c(F)c(F)c1` (single isomer, unassigned) [Example 10-1] reads 106 nM.

Compound `C[C@H]1Cn2ncc(N3CC(c4c(F)cccc4C(=O)O)CC3=O)c2CN1C(=O)Nc1cc(F)c(F)c(F)c1` (single isomer, unassigned) [Example 10-2] had an EC50 of 17 nM. Same read-out and setting: the result for `C[C@H]1Cn2ncc(N3CC(c4cccc(F)c4C(=O)O)CC3=O)c2CN1C(=O)Nc1cc(F)c(F)c(F)c1` (single isomer, unassigned) [Example 11-1] reads 312 nM; that for `C[C@H]1Cn2ncc(N3CC(c4cccc(F)c4C(=O)O)CC3=O)c2CN1C(=O)Nc1cc(F)c(F)c(F)c1` (single isomer, unassigned) [Example 11-2], 77 nM. In turn, `C[C@H]1[C@H](C)n2ncc(N3CC(N4CCC[C@H]4C(=O)O)CC3=O)c2CN1C(=O)Nc1cc(F)c(F)c(F)c1` (stereo partly drawn) [Example 6-2, (2S)-1-[1-[(6S,7S)-6,7-dimethyl-5-[(3,4,5-trifluorophenyl)carbamoyl]-6,7-dihydro-4H-pyrazolo[1,5-a]pyrazin-3-yl]-5-oxo-pyrrolidin-3-yl]pyrrolidine-2-carboxylic acid] had an EC50 of 99 nM.
